Measured values: ChEMBL document CHEMBL3739421, “Discovery of oxybisbenzoylamides as a new class of antimalarial agents” (Medchemcomm, 2015)
The source made the active and inactive calls. The rule behind the calls is not given here.

Assays:
[1] = Inhibition of beta-haematin formation after 18 hrs by spectrophotometric analysis relative to haematin; type: physicochemical
[2] = molecular target: Plasmepsin II (Plasmodium falciparum) (UniProt P46925); test: Inhibition of Plasmodium falciparum recombinant PLM2 expressed in Escherichia coli BL21(DE3) pLysS cells using Lys-GluPhe-Val-Phe-NPhe-Ala-Leu-Lys as substrate at 1 uM by spectrophotometry
[3] = system: Plasmodium falciparum; test: Antimalarial activity against Chloroquine-sensitive Plasmodium falciparum D10 assessed as parasite growth inhibition after 72 hrs by lactate dehydrogenase assay; type: functional, organism-based; conditions: D10, 72 h
[4] = system: Plasmodium falciparum; test: Antimalarial activity against Chloroquine-resistant Plasmodium falciparum W2 assessed as parasite growth inhibition after 72 hrs by lactate dehydrogenase assay; type: functional, organism-based; conditions: W2, 72 h
[5] = Cytotoxicity against human fibroblasts assessed as growth inhibition after 72 hrs by MTT assay; type: cell-based; conditions: Fibroblast
[6] = Therapeutic index, ratio of IC50 for human fibroblasts to IC50 for Chloroquine-sensitive Plasmodium falciparum D10; conditions: read-out: Ratio IC50
[7] = Therapeutic index, ratio of IC50 for human fibroblasts to IC50 for Chloroquine-resistant Plasmodium falciparum W2; conditions: read-out: Ratio IC50
[8] = Cytotoxicity against human HMEC1 cells assessed as growth inhibition after 72 hrs by MTT assay; type: cell-based; conditions: HMEC-1, 72 h
[9] = Therapeutic index, ratio of IC50 for HMEC1 cells to IC50 for Chloroquine-sensitive Plasmodium falciparum D10; type: cell-based; conditions: human; read-out: Ratio IC50
[10] = Therapeutic index, ratio of IC50 for HMEC1 cells to IC50 for Chloroquine-resistant Plasmodium falciparum W2; type: cell-based; conditions: human; read-out: Ratio IC50

Plasmepsin II (Plasmodium falciparum), sequence (P46925 125-453 limits assumed): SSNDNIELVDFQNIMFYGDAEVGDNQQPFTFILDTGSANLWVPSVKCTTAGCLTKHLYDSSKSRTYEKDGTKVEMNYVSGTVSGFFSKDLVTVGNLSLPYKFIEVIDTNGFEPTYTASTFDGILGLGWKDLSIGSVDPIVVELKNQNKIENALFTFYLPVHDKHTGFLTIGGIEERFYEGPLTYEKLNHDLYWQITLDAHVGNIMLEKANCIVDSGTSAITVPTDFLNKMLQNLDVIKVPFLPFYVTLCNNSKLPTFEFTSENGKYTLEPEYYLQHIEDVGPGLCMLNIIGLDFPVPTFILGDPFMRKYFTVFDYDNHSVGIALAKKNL

Row | SMILES | IC50 [1] | inhibition [2] | IC50 [3] | IC50 [4] | IC50 [5] | also measured
1 | CCN(CC)CCCC(C)Nc1ccnc2cc(Cl)ccc12 (stereo not drawn) [CHLOROQUINE] | 1.36 equiv |  |  |  |  | 
2 | COc1cc(NC(C)CCCN)c2ncccc2c1 (stereo not drawn) [PRIMAQUINE] | > 10 equiv |  |  |  |  | 
3 | CCCCNC(=O)[C@H](CC(C)C)NC(=O)[C@@H](NC(=O)c1ccc(Oc2ccc(C(=O)N[C@@H](CC(C)C)C(=O)N[C@@H](C)C(=O)NCCCNc3ccnc4ccccc34)cc2)cc1)[C@@H](C)CC |  | inactive | 63 nM | 54 nM |  | 
4 | CCCCNC(=O)[C@H](CC(C)C)NC(=O)[C@@H](NC(=O)c1ccc(Oc2ccc(C(=O)N[C@@H](CC(C)C)C(=O)N[C@@H](C)C(=O)NCCCC(C)Nc3cc(OC)cc4cccnc34)cc2)cc1)[C@@H](C)CC (stereo partly drawn) | > 8 equiv | inactive | 37 nM | 104 nM |  | 
5 | CCCCNC(=O)[C@H](CC(C)C)NC(=O)[C@@H](NC(=O)c1ccc(Oc2ccc(C(=O)N[C@@H](CC(C)C)C(=O)N[C@@H](C)C(=O)NCCN(CC)CC)cc2)cc1)[C@@H](C)CC |  |  | 345 nM | 143 nM |  | 
6 | CCCCNC(=O)[C@H](CC(C)C)NC(=O)[C@@H](NC(=O)c1ccc(Oc2ccc(C(=O)N[C@@H](CC(C)C)C(=O)NCCCN(CC)CC)cc2)cc1)[C@@H](C)CC |  |  | 121 nM | 103 nM | 16300 nM | selectivity ratio [6]: > 100; selectivity ratio [7]: > 100
7 | CCCCNC(=O)[C@H](CC(C)C)NC(=O)[C@@H](NC(=O)c1ccc(Oc2ccc(C(=O)N[C@@H](C)C(=O)NCCCNc3ccnc4cc(Cl)ccc34)cc2)cc1)[C@@H](C)CC | 0.79 equiv | inactive | 43 nM | 39 nM | 18000 nM | IC50 [8]: 17600 nM; selectivity ratio [9]: 450; selectivity ratio [6]: 450; selectivity ratio [10]: 450; selectivity ratio [7]: 450
8 | CCCCNC(=O)[C@H](CC(C)C)NC(=O)c1ccc(Oc2ccc(C(=O)N[C@@H](CC(C)C)C(=O)NCCN(CC)CC)cc2)cc1 |  |  | 357 nM | 314 nM | 23000 nM | 
9 | CCN(CC)CCNC(=O)[C@H](CC(C)C)NC(=O)c1ccc(Oc2ccccc2)cc1 |  |  | > 5 µg/mL | > 5 µg/mL |  | 
10 | CCCCNC(=O)[C@H](CC(C)C)NC(=O)[C@@H](NC(=O)c1ccc(Oc2ccc(C(=O)N[C@H](C(=O)N[C@@H](CC(C)C)C(=O)NCCCC)[C@@H](C)CC)cc2)cc1)[C@@H](C)CC |  |  | 1980 nM | 1620 nM |  | 
